Test results published in EP2987533B1, “7-substituted piperazin-1-yl fluoroquinolone compounds, their use in the treatment of cancer, pharmaceutical compositions and a method for preparation” (priority 2014, dated 2016).

Key:
[1] = tested on: 60 human tumor cell line panel; assay: NCI 60 cell line one-dose SRB primary anticancer assay; assay type: cell-based; conditions: 60 cell lines assay in one dose, 10µM (title; head prints 10.0 mM), 48 h; for inhibition at 10 µM: Homo sapiens, read-out: MGI % (Mean growth inhibition percentage)
Experimental: (§1) A primary anticancer assay was performed for an approximately 60 human tumor cell line panel derived from nine neoplastic diseases, in accordance with the protocol of the Drug Evaluation Branch, National Cancer Institute, Bethesda, MD (Monks A. et al., J. Natl. Cancer Inst 1991, 83, 757-766; Boyd M.R. and Paull K.D., Drug. Dev. Res. 1995, 34, 91-109; Shoemaker R.H., Nat. Rev. Cancer 2006, 6, 813-823). Briefly, tested compounds were added to the culture at a single concentration (10^-5M), and the cultures were incubated for 48 h. End point determinations were made with a protein binding dye, sulforhodamine B (SRB). The results for each tested compound were reported as the growth percentage of the treated cells when compared to that of the untreated control cells. The percentage growth was evaluated spectrophotometrically versus controls not treated with test agents.

CCRF-CEM = assay: NCI one-dose SRB growth assay; assay type: cell-based; conditions: Homo sapiens; CCRF-CEM (Leukemia), 10^-5 M, 48 h; read-out: % Growth Inhibition (GI %)
Experimental: as §1

DU-145 = assay: NCI one-dose SRB growth assay; assay type: cell-based; conditions: Homo sapiens; DU-145 (Prostate Cancer), 10^-5 M, 48 h; read-out: % Growth Inhibition (GI %)
Experimental: as §1

HCC-2998 = assay: NCI one-dose SRB growth assay; assay type: cell-based; conditions: Homo sapiens; HCC-2998 (Colon Cancer), 10^-5 M, 48 h; read-out: % Growth Inhibition (GI %)
Experimental: as §1

HT29 = assay: NCI one-dose SRB growth assay; assay type: cell-based; conditions: Homo sapiens, HT-29; HT29 (Colon Cancer), 10^-5 M, 48 h; read-out: % Growth Inhibition (GI %)
Experimental: as §1

MDA-MB-231/ATCC = assay: NCI one-dose SRB growth assay; assay type: cell-based; conditions: Homo sapiens; MDA-MB- 231/ATCC (Breast Cancer), 10^-5 M, 48 h; read-out: % Growth Inhibition (GI %)
Experimental: as §1

MOLT-4 = assay: NCI one-dose SRB growth assay; assay type: cell-based; conditions: Homo sapiens; MOLT-4 (Leukemia), 10^-5 M, 48 h; read-out: % Growth Inhibition (GI %)
Experimental: as §1

NCI-H322M = assay: NCI one-dose SRB growth assay; assay type: cell-based; conditions: Homo sapiens; NCI-H322M (Non-Small Cell Lung Cancer), 10^-5 M, 48 h; read-out: % Growth Inhibition (GI %)
Experimental: as §1

NCI/ADR-RES = assay: NCI one-dose SRB growth assay; assay type: cell-based; conditions: Homo sapiens; NCI/ADR-RES (Ovarian Cancer), 10^-5 M, 48 h; read-out: % Growth Inhibition (GI %)
Experimental: as §1

OVCAR-3 = assay: NCI one-dose SRB growth assay; assay type: cell-based; conditions: Homo sapiens; OVCAR-3 (Ovarian Cancer), 10^-5 M, 48 h; read-out: % Growth Inhibition (GI %)
Experimental: as §1

OVCAR-4 = assay: NCI one-dose SRB growth assay; assay type: cell-based; conditions: Homo sapiens; OVCAR-4 (Ovarian Cancer), 10^-5 M, 48 h; read-out: % Growth Inhibition (GI %)
Experimental: as §1

OVCAR-8 = assay: NCI one-dose SRB growth assay; assay type: cell-based; conditions: Homo sapiens; OVCAR-8 (Ovarian Cancer), 10^-5 M, 48 h; read-out: % Growth Inhibition (GI %)
Experimental: as §1

SF-268 = assay: NCI one-dose SRB growth assay; assay type: cell-based; conditions: Homo sapiens; SF-268 (CNS Cancer), 10^-5 M, 48 h; read-out: % Growth Inhibition (GI %)
Experimental: as §1

SK-MEL-28 = assay: NCI one-dose SRB growth assay; assay type: cell-based; conditions: Homo sapiens; SK-MEL-28 (Melanoma), 10^-5 M, 48 h; read-out: % Growth Inhibition (GI %)
Experimental: as §1

SK-MEL-5 = assay: NCI one-dose SRB growth assay; assay type: cell-based; conditions: Homo sapiens; SK-MEL-5 (Melanoma), 10^-5 M, 48 h; read-out: % Growth Inhibition (GI %)
Experimental: as §1

SN12C = assay: NCI one-dose SRB growth assay; assay type: cell-based; conditions: Homo sapiens; SN12C (Renal Cancer), 10^-5 M, 48 h; read-out: % Growth Inhibition (GI %)
Experimental: as §1

TK-10 = assay: NCI one-dose SRB growth assay; assay type: cell-based; conditions: Homo sapiens; TK-10 (Renal Cancer), 10^-5 M, 48 h; read-out: % Growth Inhibition (GI %)
Experimental: as §1

UO-31 = assay: NCI one-dose SRB growth assay; assay type: cell-based; conditions: Homo sapiens; UO-31 (Renal Cancer), 10^-5 M, 48 h; read-out: % Growth Inhibition (GI %)
Experimental: as §1

[2] = tested on: full panel of about 60 human tumor cell lines; assay: NCI five-dose SRB assay, full panel mean; conditions: 48 h
leukemia = assay: NCI five-dose SRB assay, subpanel average; conditions: 48 h
NSC lung cancer = assay: NCI five-dose SRB assay, subpanel average; conditions: 48 h
colon cancer = assay: NCI five-dose SRB assay, subpanel average; conditions: 48 h
CNS cancer = assay: NCI five-dose SRB assay, subpanel average; conditions: 48 h
melanoma = assay: NCI five-dose SRB assay, subpanel average; conditions: 48 h
ovarian cancer = assay: NCI five-dose SRB assay, subpanel average; conditions: 48 h
renal cancer = assay: NCI five-dose SRB assay, subpanel average; conditions: 48 h
[3] = Homo sapiens, read-out: GI50 (median growth inhibitory)
[4] = Homo sapiens, read-out: LC50 (median lethal)

`CCn1cc(C(=O)O)c(=O)c2cc(F)c(N3CCN(S(=O)(=O)c4ccc(Cl)cc4)CC3)cc21` [Compound 1a] was tested, and the “PCE (Positive cytotoxic effect: ratio between number of cell lines with percentage growth inhibition from 10 to >100 and total number of cell lines)” value [1] was 56/56, the “RGI % (Range of growth inhibition percentage)” value [1] was >100.0 to 31.3% and the inhibition at 10 µM [1] was 75.6%. The inhibition at 10 µM (CCRF-CEM) was > 100%, the inhibition at 10 µM (DU-145) was 68.3% and the inhibition at 10 µM (HCC-2998) was 75.5%. It also gave an inhibition at 10 µM (HT29) of 92.1%, an inhibition at 10 µM (MDA-MB-231/ATCC) of 58.9% and an inhibition at 10 µM (MOLT-4) of 76.4%. For the same compound, the inhibition at 10 µM (NCI-H322M) was 54.1%, the inhibition at 10 µM (NCI/ADR-RES) was 31.3% and the inhibition at 10 µM (OVCAR-3) was 71.8%. The inhibition at 10 µM (OVCAR-4) was 62.3%, the inhibition at 10 µM (OVCAR-8) was 87.4% and the inhibition at 10 µM (SF-268) was 77.3%. The inhibition at 10 µM (SK-MEL-28) was 55.4%, the inhibition at 10 µM (SK-MEL-5) was 73.4% and the inhibition at 10 µM (SN12C) was 88.4%. It also gave an inhibition at 10 µM (TK-10) of 46.4%, an inhibition at 10 µM (UO-31) of 48.9% and a CC50 ([2]; Homo sapiens, 60 cell, read-out: LC50 MG-MID (Full panel mean-graph midpoint)) of 95.5 µM. The GI50 ([2]; Homo sapiens, read-out: GI50 MG-MID (Full panel mean-graph midpoint)) was 2.95 µM, the “TGI MG-MID (Full panel mean-graph midpoint)” value ([2]; full panel, five concentrations) was 29.51 µM and the GI50 (leukemia; [3]) was 2.89 µM. The CC50 (leukemia; [4]) was > 100 µM, the “TGI (total growth inhibitory)” value (leukemia; average over leukemia subpanel, five concentrations) was 80.96 µM and the GI50 (NSC lung cancer; [3]) was 2.87 µM. The CC50 (NSC lung cancer; [4]) was > 100 µM, the “TGI (total growth inhibitory)” value (NSC lung cancer; average over NSC lung cancer subpanel, five concentrations) was 53.38 µM and the GI50 (colon cancer; [3]) was 3.38 µM. For the same compound, the CC50 (colon cancer; [4]) was 95.2 µM, the “TGI (total growth inhibitory)” value (colon cancer; average over colon cancer subpanel, five concentrations) was 73.15 µM and the GI50 (CNS cancer; [3]) was 3.57 µM. The CC50 (CNS cancer; [4]) was > 100 µM, the “TGI (total growth inhibitory)” value (CNS cancer; average over CNS cancer subpanel, five concentrations) was 70.26 µM and the GI50 (melanoma; [3]) was 2.56 µM. The CC50 (melanoma; [4]) was 89.7 µM, the “TGI (total growth inhibitory)” value (melanoma; average over melanoma subpanel, five concentrations) was 29.36 µM and the GI50 (ovarian cancer; [3]) was 3.16 µM. For the same compound, the CC50 (ovarian cancer; [4]) was > 100 µM, the “TGI (total growth inhibitory)” value (ovarian cancer; average over ovarian cancer subpanel, five concentrations) was 54.29 µM and the GI50 (renal cancer; [3]) was 2.93 µM. For the same compound, the CC50 (renal cancer; [4]) was > 100 µM and the “TGI (total growth inhibitory)” value (renal cancer; average over renal cancer subpanel, five concentrations) was 54.00 µM.

`O=C(O)c1cn(C2CC2)c2cc(N3CCN(S(=O)(=O)c4ccc(Cl)cc4Cl)CC3)c(F)cc2c1=O` [Compound 2b] was tested, and the “PCE (Positive cytotoxic effect: ratio between number of cell lines with percentage growth inhibition from 10 to >100 and total number of cell lines)” value [1] was 30/58, the “RGI % (Range of growth inhibition percentage)” value [1] was 79.75 to 11.78% and the inhibition at 10 µM [1] was 17.4%. For the same compound, the inhibition at 10 µM (CCRF-CEM) was 19%, the inhibition at 10 µM (DU-145) was < 10% and the inhibition at 10 µM (HCC-2998) was < 10%. The inhibition at 10 µM (HT29) was < 10%, the inhibition at 10 µM (MDA-MB-231/ATCC) was < 10% and the inhibition at 10 µM (MOLT-4) was 24.1%. The inhibition at 10 µM (NCI-H322M) was 12.8%, the inhibition at 10 µM (NCI/ADR-RES) was < 10% and the inhibition at 10 µM (OVCAR-3) was < 10%. For the same compound, the inhibition at 10 µM (OVCAR-4) was 35.9%, the inhibition at 10 µM (OVCAR-8) was < 10% and the inhibition at 10 µM (SF-268) was 16.4%. It also gave an inhibition at 10 µM (SK-MEL-28) of 49.1%, an inhibition at 10 µM (SK-MEL-5) of 79.8% and an inhibition at 10 µM (SN12C) of 13.8%. For the same compound, the inhibition at 10 µM (TK-10) was < 10% and the inhibition at 10 µM (UO-31) was 40%.
